The subject of data set [1] is human ES motor neurons. Put plainly: Rescue of CPA toxicity by kinase inhibitors in dilution series (FIG. 3). Particulars: for rescue of CPA toxicity: dilution series, FIG. 3.
Data set [2] relates to human ES motor neurons carrying the ALS-causing SOD1^A4V mutation. Nature of the data set: cells. It is filed as cell-based. Particulars: for EC50 / viability at 1 µM / Emax: Homo sapiens, Neuron, 72 h; for EC50: read-out: EC50; for viability at 1 µM: CPA (33 μM) + compound (1 μM), read-out: Motor Neuron Survival, % untreated; for Emax: read-out: Emax (MN survival % untreated). The protocol:
Next, survival assays were performed with all the analogs at once to generate a low-variability dataset. All compounds were evaluated at concentrations ranging from 0.1-3.0 μM (five-point dilution) in three technical replicates and two biological replicates.

Data set [3] addresses T1, MLK1/MAP3K9 (Homo sapiens, UniProt P80192).
T1 construct: purchased Reaction Biology Corp
Nature of the data set: Radiolabeled ATP kinase assay (Reaction Biology Corp.), MLK1. The class given is biochemical. The note with it: [Cmpd] 0.1 μM, 10 μM ATP. The protocol: (§1) Meanwhile, the same analogs were analyzed in a radiolabeled ATP assay (10 μM ATP; Reaction Biology Corp.) to compare the extent to which they could inhibit the activity of HGK, MLK1, or MLK3 in a cell-free environment (Table S3 and S4).

Data set [4] concerns the target T2, MLK3/MAP3K11 (Homo sapiens, UniProt Q16584).
T2 construct: purchased Reaction Biology Corp
Nature of the data set: Radiolabeled ATP kinase assay (Reaction Biology Corp.), MLK3. The class given is biochemical. The note with it: [Cmpd] 0.1 μM; 10 μM ATP. The procedure:
as §1

Data set [5] in a line: in vitro. The note with it: CD-1, mouse, liver microsomes, pH 7.4.
For data set [6], the target named is HGK/MAP4K4 (Homo sapiens, UniProt O95819). Nature of the data set: Radiolabeled ATP kinase assay (Reaction Biology Corp.), HGK. The class given is biochemical. Set-up: purchased Reaction Biology Corp. The note with it: 10 μM ATP, read-out: % Enzyme Activity (relative to DMSO controls), HGK/MAP4K4, Data 1; for remaining activity at 0.025 µM: [Cmpd] 0.025 μM; for remaining activity at 0.1 µM: [Cmpd] 0.1 μM. The protocol:
as §1

Data set [7] in a line: Plasma and brain concentration 30 min after IP injection. The class given is in vivo, mouse. Particulars: mice, ip dosing; for Kp at 30 min / concentration at 30 min: male, C57BL6/J, mouse; for Kp at 30 min: brain/plasma, read-out: B/P. The protocol: All studies were performed on 6-week old male C57BL6/J mice that were housed in the Columbia University Medical Center facility in a 12h light/dark cycle with access to food and water ad libitum. All animal procedures were approved by the Columbia University IACUC. […] Animals were weighed and injected once intraperitoneally (IP) at the indicated dose (10 or 20 mg/kg). After 30 min, animals were deeply anesthetized with 2.5% Avertin. Whole blood was collected by cardiac puncture in tubes containing 0.5M EDTA as an anticoagulant, and centrifuged for 10 min at 845 rcf at 4° to isolate plasma. Following cardiac puncture, animals were decapitated and brains were dissected and weighed. Brain samples were homogenized with a glass dounce homogenizer in 5 volumes of ddH2O. Brain and plasma samples were snap frozen in liquid nitrogen and stored at −80° C. before further processing.
The plasma samples were transferred to Eppendorf tubes (50 μL per sample) and diluted with acetonitrile (200 μL). The samples were sonicated for 1 minute followed by centrifugation at 16,000 rpm for 10 minutes. The supernatant was transferred to another Eppendorf tube and the solvent evaporated overnight. The samples were reconstituted in a mixture of 40 μL acetonitrile and 10 μL water transferred to a sample vial with insert, and analyzed by LC-MS.
The homogenized brain samples (250 μL) were transferred to Eppendorf tubes and diluted with acetonitrile (750 μL). The samples were sonicated for 1 minute followed by centrifugation at 16,000 rpm for 10 minutes. The supernatant (900 μL) was transferred to another Eppendorf tube and the solvent evaporated overnight. The samples were reconstituted in a mixture of 80 μL acetonitrile and 20 μL water, transferred to a sample vial with insert, and analyzed by LC-MS.
LC-MS analysis was performed on a platform comprising a Thermo Scientific Dionex Ultimate 3000 and a Bruker amaZon SL equipped with an electrospray ionization source controlled by Bruker Hystar 3.2. The compound concentration in each plasma sample was determined using a calibration curve. Chromatographic separation was performed by injecting 10 μL of the sample onto an Agilent Eclipse Plus C18 column (2.1×50 mm, 3.5 μm) maintained at 20° C. The flow rate was maintained at 400 μL/min. The initial flow conditions were 60% solvent A (water containing 0.1% acetic acid) and 40% solvent B (methanol containing 0.1% acetic acid). Solvent B was raised to 60% over 0.25 minutes and to 70% by 6.75 minutes.

Data set [8] deals with human stem cell-derived motor neurons derived from a healthy patient. Put plainly: CPA survival assay, wild-type human stem cell-derived motor neurons. The note with it: 8-point dilution series.
Data set [9] has as its system ESC-derived spinal motor neurons and interneurons. Put plainly: Toxicity of ER stressors in mouse ESC-derived spinal neuron cultures. It is filed as cell-based. The note with it: co-cultures, increasing concentrations. From the text:
One of the selective stressors that we identified was cyclopiazonic acid (CPA), a mycotoxin that reversibly blocks the sarcoendoplasmic reticulum-associated calcium ATPse (SERCA). SERCA is responsible for sequestering calcium from the cytoplasm into the endoplasmic reticulum (ER) (Goeger et al. 1988). SERCA inhibition lowers calcium concentration in the ER, leading to dysfunction of protein folding, activation of the unfolded protein response, ER stress, and apoptosis (Doutheil et al. 1997). […]. For all subsequent experiments, unless stated otherwise, motor neurons were treated with 7.5 μM CPA.
[…]. […] […].
For this analysis, we generated a new ESC line that expresses tdTomato in dI4 and dIL dorsal spinal inhibitory interneurons derived from Ptf1α-expressing progenitors (Hoang et al. 2017, unpublished data). We differentiated this line under conditions that promote the specification of dorsal interneuron identity. FACS-purified tdTomato-expressing interneurons were co-cultured with FACS-purified GFP-expressing spinal motor neurons (FIG. 16E and FIG. 16G).
To strengthen the link between the activation of ER stress and motor neuron degeneration, we extended our study to include two additional compounds that activate ER stress: thapsigargin, a drug that acts similarly to CPA by inhibiting SERCA pumps, but is irreversible (Lytton et al. 1991), and tunicamycin, a drug that triggers ER stress in a calcium-independent manner by inhibiting protein N-glycosylation in the ER (Oslowski et al. 2011). […] Thus, the motor neuron-toxic effects of CPA are likely related to its activation of ER stress pathways and not to its effects on calcium levels or other off-target effects (FIG. 16G).

Setting [10] is: read-out: % Enzyme Activity Remaining (relative to DMSO controls), MLK1/MAP3K9, Data 1.
[11] abbreviates: read-out: % Enzyme Activity Remaining (relative to DMSO controls), MLK1/MAP3K9, Data 2.

“And” between values parts separate entries of the source, which are not always exact repeats. Equal values may be shown once. Read-outs that look alike come from different tables or passages of the source.

Chain of HGK/MAP4K4 (O95819 whole entry): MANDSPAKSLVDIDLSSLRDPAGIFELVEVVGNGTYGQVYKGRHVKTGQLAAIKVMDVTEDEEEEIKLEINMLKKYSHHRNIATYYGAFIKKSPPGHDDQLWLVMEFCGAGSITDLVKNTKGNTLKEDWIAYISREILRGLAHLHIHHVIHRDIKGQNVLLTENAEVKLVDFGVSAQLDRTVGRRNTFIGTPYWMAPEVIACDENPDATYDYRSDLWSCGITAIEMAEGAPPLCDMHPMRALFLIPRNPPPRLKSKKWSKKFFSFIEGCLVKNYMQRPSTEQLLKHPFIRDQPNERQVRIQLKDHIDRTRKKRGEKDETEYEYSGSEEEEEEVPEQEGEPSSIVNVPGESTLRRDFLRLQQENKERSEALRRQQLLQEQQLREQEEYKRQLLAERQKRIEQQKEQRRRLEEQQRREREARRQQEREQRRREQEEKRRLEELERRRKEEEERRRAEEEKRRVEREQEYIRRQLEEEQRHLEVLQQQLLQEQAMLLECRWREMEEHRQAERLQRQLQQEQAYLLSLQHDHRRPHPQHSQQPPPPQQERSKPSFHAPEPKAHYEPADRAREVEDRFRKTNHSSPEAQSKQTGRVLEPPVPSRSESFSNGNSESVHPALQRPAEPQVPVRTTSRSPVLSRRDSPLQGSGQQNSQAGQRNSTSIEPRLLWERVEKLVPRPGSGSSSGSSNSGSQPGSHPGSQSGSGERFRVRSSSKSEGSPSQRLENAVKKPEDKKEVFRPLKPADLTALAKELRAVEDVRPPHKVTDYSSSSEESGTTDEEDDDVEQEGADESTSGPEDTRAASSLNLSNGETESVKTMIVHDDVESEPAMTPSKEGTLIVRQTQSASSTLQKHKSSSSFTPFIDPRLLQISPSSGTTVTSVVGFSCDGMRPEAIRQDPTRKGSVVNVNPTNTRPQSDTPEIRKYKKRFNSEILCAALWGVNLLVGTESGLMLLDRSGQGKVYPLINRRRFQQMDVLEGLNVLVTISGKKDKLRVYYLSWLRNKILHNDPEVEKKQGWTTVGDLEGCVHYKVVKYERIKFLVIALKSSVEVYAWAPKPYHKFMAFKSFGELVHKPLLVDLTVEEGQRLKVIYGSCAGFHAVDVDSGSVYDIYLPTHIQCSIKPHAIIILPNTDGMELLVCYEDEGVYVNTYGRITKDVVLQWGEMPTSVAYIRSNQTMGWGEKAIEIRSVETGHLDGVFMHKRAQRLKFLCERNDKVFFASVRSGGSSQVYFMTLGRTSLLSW
T1 sequence (P80192 whole entry): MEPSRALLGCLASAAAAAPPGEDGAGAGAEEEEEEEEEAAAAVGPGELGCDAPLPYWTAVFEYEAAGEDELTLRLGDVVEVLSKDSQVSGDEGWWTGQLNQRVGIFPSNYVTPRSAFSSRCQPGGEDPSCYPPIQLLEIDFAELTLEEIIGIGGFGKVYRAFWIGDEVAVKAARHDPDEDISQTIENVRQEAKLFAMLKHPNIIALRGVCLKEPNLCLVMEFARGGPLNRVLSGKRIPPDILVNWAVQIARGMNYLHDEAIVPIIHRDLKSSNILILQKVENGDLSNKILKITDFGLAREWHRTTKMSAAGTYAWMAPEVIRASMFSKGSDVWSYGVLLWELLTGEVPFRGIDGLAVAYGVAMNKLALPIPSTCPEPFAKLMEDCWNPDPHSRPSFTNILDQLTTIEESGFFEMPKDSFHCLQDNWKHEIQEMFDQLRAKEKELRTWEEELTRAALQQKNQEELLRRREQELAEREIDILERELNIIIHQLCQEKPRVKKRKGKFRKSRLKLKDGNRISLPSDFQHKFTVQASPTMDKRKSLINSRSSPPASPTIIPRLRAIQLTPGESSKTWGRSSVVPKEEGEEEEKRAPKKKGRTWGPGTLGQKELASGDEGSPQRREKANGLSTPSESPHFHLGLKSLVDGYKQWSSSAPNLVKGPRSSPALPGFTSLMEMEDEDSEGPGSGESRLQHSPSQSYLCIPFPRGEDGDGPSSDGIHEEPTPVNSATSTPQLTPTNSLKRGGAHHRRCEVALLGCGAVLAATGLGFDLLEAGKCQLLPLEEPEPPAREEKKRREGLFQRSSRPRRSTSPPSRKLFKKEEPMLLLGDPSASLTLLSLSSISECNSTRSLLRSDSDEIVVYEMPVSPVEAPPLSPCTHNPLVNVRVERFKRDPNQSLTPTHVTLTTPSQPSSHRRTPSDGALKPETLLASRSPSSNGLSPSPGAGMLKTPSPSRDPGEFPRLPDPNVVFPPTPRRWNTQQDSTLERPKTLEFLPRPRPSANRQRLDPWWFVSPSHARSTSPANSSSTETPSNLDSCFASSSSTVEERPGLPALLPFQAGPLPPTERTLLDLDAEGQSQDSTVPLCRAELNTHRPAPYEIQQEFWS
T2 sequence (Q16584 whole entry): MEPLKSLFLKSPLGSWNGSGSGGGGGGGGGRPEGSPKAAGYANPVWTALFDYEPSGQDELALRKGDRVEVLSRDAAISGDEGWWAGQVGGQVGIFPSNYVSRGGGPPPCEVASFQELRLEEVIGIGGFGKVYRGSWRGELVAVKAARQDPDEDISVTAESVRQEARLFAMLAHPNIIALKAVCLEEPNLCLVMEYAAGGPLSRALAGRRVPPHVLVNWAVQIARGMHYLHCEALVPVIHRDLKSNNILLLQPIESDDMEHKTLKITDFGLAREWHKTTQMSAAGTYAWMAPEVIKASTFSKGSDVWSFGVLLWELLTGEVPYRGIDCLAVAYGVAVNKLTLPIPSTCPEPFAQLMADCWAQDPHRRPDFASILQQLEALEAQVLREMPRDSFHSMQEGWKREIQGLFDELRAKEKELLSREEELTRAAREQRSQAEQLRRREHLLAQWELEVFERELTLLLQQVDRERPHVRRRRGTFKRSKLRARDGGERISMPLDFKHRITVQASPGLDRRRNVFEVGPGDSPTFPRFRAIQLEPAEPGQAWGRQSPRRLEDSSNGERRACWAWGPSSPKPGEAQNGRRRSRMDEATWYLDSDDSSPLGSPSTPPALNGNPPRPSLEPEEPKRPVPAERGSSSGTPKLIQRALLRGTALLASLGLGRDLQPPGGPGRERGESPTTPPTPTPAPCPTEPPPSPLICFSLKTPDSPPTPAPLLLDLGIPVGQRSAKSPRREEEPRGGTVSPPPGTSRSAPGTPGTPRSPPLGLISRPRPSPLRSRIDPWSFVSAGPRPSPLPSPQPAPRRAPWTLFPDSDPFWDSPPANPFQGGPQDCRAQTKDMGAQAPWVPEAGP

For the molecule `CCSCc1ccc2c(c1)c1c3c(c4c5cc(CSCC)ccc5n5c4c1n2[C@H]1C[C@](O)(C(=O)OC)[C@]5(C)O1)CNC3=O` [CEP1347], the “rescue of CPA toxicity” value in [1] was “dose-dependent rescue of CPA toxicity”.
A word on the EC50: it is the concentration that produces a half-maximal response. One may read the half-life as the time in which the quantity being followed falls by half. In the case of `CN1CCN(Cc2ccc(-c3cnc4[nH]cc(-c5cccc6[nH]ncc56)c4c3)cc2)CC1` [Compound 7aa, 4-(5-(4-((4-Methylpiperazin-1-yl)methyl)phenyl)-1H-pyrrolo[2,3-b]pyridin-3-yl)-1H-indazole], in [2] (CPA 33 μM), the EC50 stood at 208 nM and the Emax stood at 134%. Besides, the viability at 1 µM in [2] amounted to 112%. For the same molecule, the remaining activity at 0.1 µM in data set [3] (setting [10]) was 52.9%. Besides, the remaining activity at 0.1 µM in [3] (setting [11]) is 51.7%. Besides, in data set [4], the “% Enzyme Activity Remaining (relative to DMSO controls), MLK3/MAP3K11, Data 1” value worked out at 31.88% and the “% Enzyme Activity Remaining (relative to DMSO controls), MLK3/MAP3K11, Data 2” value was 31.78%. Further, in data set [5], the half-life at 20 μM was 9 min. Moreover, in [6], the remaining activity at 0.025 µM came to 2.75% and the remaining activity at 0.1 µM was -1.36%.
In the case of `CN1CCN(Cc2ccc(-c3cnc4[nH]cc(-c5cccc(F)c5)c4c3)cc2)CC1` [Compound 7y, 3-(3-Fluorophenyl)-5-(4-((4-methylpiperazin-1-yl)methyl)phenyl)-1H-pyrrolo[2,3-b]pyridine], in [2] (CPA 33 μM), the EC50 turned out to be 433 nM and the Emax stood at 104%. For the same molecule, the viability at 1 µM in data set [2] was 86.4%. The remaining activity at 0.1 µM in data set [3] (setting [10]) came out at 57.1%. For the same molecule, in [3] (setting [11]), the remaining activity at 0.1 µM was determined as 58.1%. In addition, in data set [4], the “% Enzyme Activity Remaining (relative to DMSO controls), MLK3/MAP3K11, Data 1” value came out at 40.75% and the “% Enzyme Activity Remaining (relative to DMSO controls), MLK3/MAP3K11, Data 2” value came to 43.09%. For the same molecule, the half-life at 20 μM in data set [5] is above 30 min. Besides, in [6], the remaining activity at 0.025 µM was 7.85% and the remaining activity at 0.1 µM came to 1.53%.
`CN1CC2CCC(C1)N2Cc1ccc(-c2cnc3[nH]cc(-c4cccc(Cl)c4)c3c2)cc1` [Compound 12f, 3-(3-Chlorophenyl)-5-(4-((3-methyl-3,8-diazabicyclo[3.2.1]octan-8-yl)methyl)phenyl)-1H-pyrrolo[2,3-b]pyridine]: in data set [2] (CPA 33 μM), the “concentration giving complete rescue from CPA” value was determined as 0.3 µM, the EC50 was 110 nM and the Emax turned out to be 116%. The molecule further registered a half-life at 20 μM in [5] of 158 min.
For the molecule `O[C@@H]1CCN(Cc2ccc(-c3cnc4[nH]cc(-c5cccc(F)c5)c4c3)cc2)C1` [Compound 12i, (R)-1-(4-(3-(3-Fluorophenyl)-1H-pyrrolo[2,3-b]pyridin-5-yl)benzyl)pyrrolidin-3-ol], the EC50 in data set [2] (CPA 33 μM) was found to be 50 nM. In [2] (CPA 33 μM), the Emax is 115%. Further, the Kp at 30 min was determined as 3.7 in [7] (10 mg/kg) and 2.8 in data set [7] (20 mg/kg). Further, the concentration at 30 min in [7] (10 mg/kg, read-out: brain) is 2240 ng/g and 5.78 µM; in data set [7] (10 mg/kg, read-out: plasma) it was < 600 ng/mL and < 1.55 µM; in data set [7] (20 mg/kg, read-out: brain) it was 9780 ng/g and 25.2 µM; in data set [7] (20 mg/kg, read-out: plasma), 3490 ng/mL and 9 µM.
Turning to `O[C@@H]1CCN(Cc2ccc(-c3cnc4[nH]cc(-c5cccc(Cl)c5)c4c3)cc2)C1` [Compound 12l, (R)-1-(4-(3-(3-Chlorophenyl)-1H-pyrrolo[2,3-b]pyridin-5-yl)benzyl)pyrrolidin-3-ol], the EC50 in data set [2] (CPA 33 μM) turned out to be 90 nM. Also, the Emax in [2] (CPA 33 μM) amounted to 115%. For the same molecule, the Kp at 30 min in data set [7] (10 mg/kg) was 1.7. Moreover, the concentration at 30 min in data set [7] (10 mg/kg, read-out: brain) was < 1000 ng/g and > 2.48 µM; in data set [7] (10 mg/kg, read-out: plasma) it was < 600 ng/mL and < 1.49 µM. In data set [7] (20 mg/kg), the “toxicity at this concentration” value is on record as “^cCompound was toxic at this concentration”.
Regarding `CCN(CC)C(=O)c1ccc(Nc2nc(OCC3CCCCC3)c3[nH]cnc3n2)cc1` [NU6140], in [1], the “rescue of CPA toxicity” value is on record as “dose-dependent rescue of CPA toxicity”.
Take `Cn1cc(/C=C2\C(=O)Nc3ccc(S(N)(=O)=O)cc32)c2ccccc21` [Syk inhibitor]: the “rescue of CPA toxicity” value in data set [1] is on record as “dose-dependent rescue of CPA toxicity”.
For `CCC(=O)Nc1cccc(Oc2nc(Nc3ccc(N4CCN(C)CC4)cc3OC)ncc2Cl)c1` [WZ4003], in data set [8], the “rescue of CPA toxicity” value was “unable to rescue CPA toxicity”. Also, in data set [1], the “concentration that potentiated CPA-induced neurodegeneration and was toxic without CPA” value was at least 1000 nM; the “rescue of CPA toxicity” value was “unable to rescue CPA toxicity”.
For `C/C=C(/C)C(=O)O[C@H]1C(C)=C2[C@H]([C@@H]1OC(=O)CCCCCCC)[C@@](C)(OC(C)=O)C[C@H](OC(=O)CCC)[C@@]1(O)[C@H]2OC(=O)[C@@]1(C)O` [thapsigargin], the “sensitivity of spinal motor neurons vs dorsal interneurons” value in [9] is on record as “selectively sensitive”.
For JAK3 inhibitor IV, the “rescue of CPA toxicity” value in data set [1] was “dose-dependent rescue of CPA toxicity”.
tunicamycin: in data set [9], the “sensitivity of spinal motor neurons vs dorsal interneurons” value is on record as “selectively sensitive”.

(Values after patent publication US12227500B2, “Substituted pyrrolo[2,3-b]pyridines for suppressing toxic endoplasmic reticulum stress” (THE TRUSTEES OF COLUMBIA UNIVERSITY IN THE CITY OF NEW YORK, priority 2018, dated 2025).)
